# From publication PMC6010112, “Resolution of co-eluting isomers of anti-inflammatory drugs conjugated to carbonic anhydrase inhibitors from plasma in liquid chromatography by energy-resolved tandem mass spectrometry” (Journal of Enzyme Inhibition and Medicinal Chemistry, 2018)
# How the values were obtained:
# [1] = Chemical stability in phosphate buffer solution (spontaneous hydrolysis), LC-MS/MS; assay type: physicochemical; settings: phosphate buffer solution (PBS), 1 µM analyte, 37 °C, incubation 0-120 min, read-out: T 1/2 PBS
# Method: (§1) The sample was prepared adding 10 µL of spiked solution to 100 µL of tested matrix (PBS or human plasma or rat plasma) in microcentrifuge tubes. The obtained solutions correspond to 1 µM of analyte.
# (§2) Each set of samples was incubated in triplicate at four different times, 0, 30, 60, and 120 min at 37 °C. Therefore, the matrix stability profile of each analyte was represented by a batch of 12 samples (4 incubation times ×3 replicates). After the incubation, the samples were added with 300 µL of ISTD solution and centrifuged (room temperature for 5 min at 800 g). The supernatants were transferred in autosampler vials and dried under a gentle stream of nitrogen.
# (§3) The dried samples were dissolved in 1.0 mL of 10 mM of formic acid in mQ water:acetonitrile 80:20 solution[28].
# (§4) An investigation on the chemical stability of compounds under study in PBS, human and rat plasma was performed for evaluating their susceptibility to spontaneous or enzymatic hydrolysis.
# (§5) The stability profiles were obtained by monitoring the variation of analyte concentration at different incubation times in PBS or human or rat plasma samples. Generally, when the substrate concentration was smaller than the Michaelis–Menten constant (KM), the enzymatic degradation rate is described to a first-order kinetics. Therefore, plotting the natural logarithm of the quantitative data versus the incubation time, a linear function can be used and its slope represents the degradation rate constant (k).
# (§6) All degradation plots of references and studied compounds were reported in the Supplemental material (SF11–SF26). The half-life of each tested compound was calculated as follows: (4) […]
# [2] = Stability in human plasma (enzymatic hydrolysis), LC-MS/MS; assay type: in vitro ADME; settings: 1 µM analyte, 37 °C, incubation 0-120 min; for half-life at 1 µM: male, read-out: T 1/2 Human plasma
# Method: (§7) PBS was prepared by adding 8.01 g L^−1 of NaCl, 0.2 g L^−1 of KCl, 1.78 g L^−1 of Na2HPO4·2H2O, and 0.27 g L^−1 of KH2PO4. Human plasma was collected from healthy volunteer and the rat plasma was collected from Sprague-Dawley male rats; each plasma batch was kept at −80 °C until use.
# as §1
# as §2, with “Therefore,” for “Each set of samples was incubated in triplicate at four different times, 0, 30, 60, and 120 min at 37 °C. Therefore,”
# as §3, §4, §5
# [3] = Stability in rat plasma (enzymatic hydrolysis), LC-MS/MS; assay type: in vitro ADME, Sprague-Dawley male rats; settings: male, Sprague-Dawley, 1 µM analyte, 37 °C, incubation 0-120 min, read-out: T 1/2 Rat plasma
# Method: as §7, §1, §2, §3, §4
# In order to establish the hydrolytic activity of the employed plasma batches, two reference compounds were tested, following the procedure reported in the section ‘Validation of LC-MS/MS methods’: KEE (half-life <2 h) and enalapril (half-life <0.5 h) to verify the human and rat plasma activity, respectively[32]^,[33].
# as §5, §6
# [4] = design: method as in PMID 28238510, PMID 28113128; settings: cited from earlier work
# [5] = design: method as in PMID 28238510, PMID 28113128; settings: cited from earlier work; remark: listed apart in the source
Compound,half-life at 1 µM [1],half-life at 1 µM [2],half-life at 1 µM [3],T 1/2 Human plasma [2],half-life (reference compound to verify human plasma activity) [4],half-life (reference compound to verify rat plasma activity) [5]
COc1ccc2c(c1)c(CC(=O)NCCOc1ccc3oc(=O)ccc3c1)c(C)n2C(=O)c1ccc(Cl)cc1 [Compound 1A],> 4 h,> 4 h,> 4 h,,,
"CCOC(=O)C(C)c1cccc(C(=O)c2ccccc2)c1 (stereo not shown) [KEE, Ketoprofen ethyl ester, reference compound]",,,,1.58 h,< 2 h,
CC(C)Cc1ccc(C(C)C(=O)NCCOc2ccc3oc(=O)ccc3c2)cc1 (stereo not shown) [Compound 4A],> 4 h,> 4 h,> 4 h,,,
COc1ccc2c(c1)c(CC(=O)NCCOc1ccc3ccc(=O)oc3c1)c(C)n2C(=O)c1ccc(Cl)cc1 [Compound 1B],> 4 h,> 4 h,> 4 h,,,
CC(C(=O)NCCOc1ccc2ccc(=O)oc2c1)c1cccc(C(=O)c2ccccc2)c1 (stereo not shown) [Compound 3B],> 4 h,> 4 h,> 4 h,,,
O=C(Cc1ccccc1Nc1c(Cl)cccc1Cl)NCCOc1ccc2oc(=O)ccc2c1 [Compound 5A],> 4 h,> 4 h,> 4 h,,,
"CCOC(=O)[C@H](CCc1ccccc1)N[C@@H](C)C(=O)N1CCC[C@H]1C(=O)O [Enalapril, enalapril, reference compound]",,,0.367 h,,,< 0.5 h
O=C(Cc1ccccc1Nc1c(Cl)cccc1Cl)NCCOc1ccc2ccc(=O)oc2c1 [Compound 5B],> 4 h,> 4 h,> 4 h,,,
CC(C)Cc1ccc(C(C)C(=O)NCCOc2ccc3ccc(=O)oc3c2)cc1 (stereo not shown) [Compound 4B],> 4 h,> 4 h,> 4 h,,,
CC1=C(CC(=O)NCCOc2ccc3oc(=O)ccc3c2)c2cc(F)ccc2/C1=C\c1ccc([S+](C)[O-])cc1 (stereo not shown) [Compound 2A],> 4 h,> 4 h,> 4 h,,,
CC(C(=O)NCCOc1ccc2oc(=O)ccc2c1)c1cccc(C(=O)c2ccccc2)c1 (stereo not shown) [Compound 3A],> 4 h,> 4 h,> 4 h,,,
CC1=C(CC(=O)NCCOc2ccc3ccc(=O)oc3c2)c2cc(F)ccc2/C1=C\c1ccc([S+](C)[O-])cc1 (stereo not shown) [Compound 2B],> 4 h,> 4 h,> 4 h,,,

# Now from value to compound, other results behind:
half-life at 1 µM [1],half-life at 1 µM [2],half-life at 1 µM [3],T 1/2 Human plasma [2],Compound,half-life (reference compound to verify human plasma activity) [4],half-life (reference compound to verify rat plasma activity) [5]
> 4 h,> 4 h,> 4 h,,COc1ccc2cc(C(C)C(=O)NCCOc3ccc4oc(=O)ccc4c3)ccc2c1 (stereo not shown) [Compound 8A],,
> 4 h,> 4 h,> 4 h,,O=C(c1ccccc1)c1ccc2n1CCC2C(=O)NCCOc1ccc2oc(=O)ccc2c1 (stereo not shown) [Compound 7A],,
> 4 h,> 4 h,> 4 h,,COc1ccc2cc(C(C)C(=O)NCCOc3ccc4ccc(=O)oc4c3)ccc2c1 (stereo not shown) [Compound 8B],,
> 4 h,> 4 h,> 4 h,,O=C(c1ccccc1)c1ccc2n1CCC2C(=O)NCCOc1ccc2ccc(=O)oc2c1 (stereo not shown) [Compound 7B],,
> 4 h,> 4 h,> 4 h,,CC(C(=O)NCCOc1ccc2ccc(=O)oc2c1)c1ccc(-c2ccccc2)c(F)c1 (stereo not shown) [Compound 6B],,
> 4 h,> 4 h,> 4 h,,CC(C(=O)NCCOc1ccc2oc(=O)ccc2c1)c1ccc(-c2ccccc2)c(F)c1 (stereo not shown) [Compound 6A],,
